Results as given in ChEMBL document CHEMBL1201862, “PubChem BioAssay data set” (2004).
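Five concentrations, 48 hours, 96-well plates. GI50: concentration for 50% inhibition of growth.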 Calls of active or inactive are those of the source. Rule as the data show it: active = GI50 up to about 1.1 µM and inactive = higher.

Columns and labels:
Experiment in all cases: NCI tumour cell line growth inhibition, 48 h
HCC 2998 = test system: HCC 2998
KM12 = test system: KM12
SK-MEL-28 = test system: SK-MEL-28
EKVX = test system: EKVX
SNB-75 = test system: SNB-75
M14 = test system: M14
NCI/ADR-RES = test system: NCI/ADR-RES
SF-268 = test system: SF-268
OVCAR-3 = test system: OVCAR-3
LOX IMVI = test system: LOX IMVI
OVCAR-8 = test system: OVCAR-8
T47D = test system: T47D
A549 = test system: A549
NCI-H23 = test system: NCI-H23
SW-620 = test system: SW-620
RPMI-8226 = test system: RPMI-8226
MDA-MB-231 = test system: MDA-MB-231
A498 = test system: A498
SR = test system: SR
MOLT-4 = test system: MOLT-4
HCT-116 = test system: HCT-116
HT-29 = test system: HT-29
HL-60 = test system: HL-60
HCT-15 = test system: HCT-15
UACC-62 = test system: UACC-62
TK-10 = test system: TK-10
Hs-578T = test system: Hs-578T
BT-549 = test system: BT-549
CCRF-CEM = test system: CCRF-CEM
CAKI-1 = test system: CAKI-1
Malme-3M = test system: Malme-3M
SNB-19 = test system: SNB-19
UACC-257 = test system: UACC-257
SK-OV-3 = test system: SK-OV-3
MCF7 = test system: MCF7
SK-MEL-5 = test system: SK-MEL-5
UO-31 = test system: UO-31
K562 = test system: K562
COLO 205 = test system: COLO 205
OVCAR-4 = test system: OVCAR-4
NCI-H460 = test system: NCI-H460
OVCAR-5 = test system: OVCAR-5
HOP-62 = test system: HOP-62
MDA-MB-435 = test system: MDA-MB-435
U-251 = test system: U-251
SN12C = test system: SN12C
MDA-N = test system: MDA-N
NCI-H522 = test system: NCI-H522
IGROV-1 = test system: IGROV-1
NCI-H226 = test system: NCI-H226
ACHN = test system: ACHN
RXF 393 = test system: RXF 393
SF-539 = test system: SF-539
DU-145 = test system: DU-145
HOP-92 = test system: HOP-92
786-0 = test system: 786-0
PC-3 = test system: PC-3
SF-295 = test system: SF-295
SK-MEL-2 = test system: SK-MEL-2

## O=S1(=O)c2cnccc2N=C(NCc2cccc3ccccc23)N1c1ccccc1
HCC 2998
  GI50: 38.4 µM (inactive)
KM12
  GI50: > 100 µM (inactive)
SK-MEL-28
  GI50: > 100 µM (inactive)
EKVX
  GI50: 36.4 µM (inactive)
SNB-75
  GI50: > 100 µM (inactive)
M14
  GI50: > 83.9 µM (inactive)
NCI/ADR-RES
  GI50: 97.5 µM (inactive)
SF-268
  GI50: > 100 µM (inactive)
OVCAR-3
  GI50: > 100 µM (inactive)
LOX IMVI
  GI50: > 96.8 µM (inactive)
OVCAR-8
  GI50: > 93.1 µM (inactive)
T47D
  GI50: 54.7 µM (inactive)
A549
  GI50: > 57.7 µM (inactive)
NCI-H23
  GI50: 36.2 µM (inactive)
SW-620
  GI50: > 100 µM (inactive)
RPMI-8226
  GI50: 13.6 µM (inactive)
MDA-MB-231
  GI50: > 43 µM (inactive)
A498
  GI50: > 100 µM (inactive)
SR
  GI50: > 100 µM (inactive)
MOLT-4
  GI50: 12.2 µM (inactive)
HCT-116
  GI50: 9.35 µM (inactive)
HT-29
  GI50: > 100 µM (inactive)
HL-60
  GI50: 1.87 µM (inactive)
HCT-15
  GI50: 50.1 µM
UACC-62
  GI50: > 22.4 µM (inactive)
TK-10
  GI50: 64.9 µM (inactive)
Hs-578T
  GI50: > 73.3 µM (inactive)
BT-549
  GI50: > 100 µM (inactive)
CCRF-CEM
  GI50: 2.51 µM (inactive)
CAKI-1
  GI50: > 100 µM (inactive)
Malme-3M
  GI50: > 100 µM (inactive)
SNB-19
  GI50: > 100 µM (inactive)
UACC-257
  GI50: > 100 µM (inactive)
SK-OV-3
  GI50: > 100 µM (inactive)
MCF7
  GI50: 36.6 µM (inactive)
SK-MEL-5
  GI50: > 95.9 µM (inactive)
UO-31
  GI50: > 56.5 µM (inactive)
K562
  GI50: 29.4 µM (inactive)
COLO 205
  GI50: > 85.7 µM (inactive)
OVCAR-4
  GI50: > 91.2 µM (inactive)
NCI-H460
  GI50: 60.8 µM (inactive)
OVCAR-5
  GI50: > 100 µM (inactive)
HOP-62
  GI50: > 100 µM (inactive)
MDA-MB-435
  GI50: > 100 µM (inactive)
U-251
  GI50: 43.8 µM (inactive)
SN12C
  GI50: 27 µM (inactive)
MDA-N
  GI50: 13.2 µM (inactive)
NCI-H522
  GI50: 30.6 µM (inactive)
IGROV-1
  GI50: > 61.5 µM (inactive)
NCI-H226
  GI50: > 100 µM (inactive)
ACHN
  GI50: 35.9 µM (inactive)
RXF 393
  GI50: > 43.9 µM (inactive)
SF-539
  GI50: > 100 µM (inactive)
DU-145
  GI50: > 100 µM (inactive)
HOP-92
  GI50: > 41.2 µM (inactive)
786-0
  GI50: 15 µM (inactive)
PC-3
  GI50: 30 µM (inactive)
SF-295
  GI50: 62.8 µM (inactive)

## O=C(/C=C/c1ccccc1Br)c1ccccc1
HCC 2998
  GI50: 2.89 µM (inactive)
KM12
  GI50: 2.14 µM (inactive)
SK-MEL-28
  GI50: 3.69 µM (inactive)
EKVX
  GI50: 13 µM (inactive)
SNB-75
  GI50: 12 µM (inactive)
M14
  GI50: 6.61 µM (inactive)
NCI/ADR-RES
  GI50: 6.08 µM (inactive)
SF-268
  GI50: 3.58 µM (inactive)
OVCAR-3
  GI50: 10.4 µM (inactive)
LOX IMVI
  GI50: 1.36 µM (inactive)
OVCAR-8
  GI50: 2.63 µM (inactive)
T47D
  GI50: 4.52 µM (inactive)
A549
  GI50: 12 µM (inactive)
NCI-H23
  GI50: 4.39 µM (inactive)
SW-620
  GI50: 1.58 µM (inactive)
RPMI-8226
  GI50: 3.01 µM (inactive)
MDA-MB-231
  GI50: 13.2 µM (inactive)
A498
  GI50: 3.39 µM (inactive)
SR
  GI50: 2.18 µM (inactive)
MOLT-4
  GI50: 2.84 µM (inactive)
HCT-116
  GI50: 1.89 µM (inactive)
HT-29
  GI50: 3.03 µM (inactive)
HL-60
  GI50: 1.35 µM (inactive)
HCT-15
  GI50: 2.11 µM
UACC-62
  GI50: 11.4 µM (inactive)
TK-10
  GI50: 2.17 µM (inactive)
Hs-578T
  GI50: 5.02 µM (inactive)
BT-549
  GI50: 13.6 µM (inactive)
CCRF-CEM
  GI50: 0.259 µM (active)
CAKI-1
  GI50: 2.96 µM (inactive)
SNB-19
  GI50: 10.9 µM (inactive)
UACC-257
  GI50: 9.68 µM (inactive)
SK-OV-3
  GI50: 16.9 µM (inactive)
MCF7
  GI50: 0.427 µM (active)
SK-MEL-5
  GI50: 9.31 µM (inactive)
UO-31
  GI50: 5.55 µM (inactive)
K562
  GI50: 1.94 µM (inactive)
SK-MEL-2
  GI50: 15.7 µM (inactive)
COLO 205
  GI50: 14.5 µM (inactive)
OVCAR-4
  GI50: 1.77 µM (inactive)
NCI-H460
  GI50: 4.37 µM (inactive)
OVCAR-5
  GI50: 16.1 µM (inactive)
HOP-62
  GI50: 13.4 µM (inactive)
MDA-MB-435
  GI50: 2.46 µM (inactive)
U-251
  GI50: 1.56 µM (inactive)
SN12C
  GI50: 9.84 µM (inactive)
MDA-N
  GI50: 6.71 µM (inactive)
NCI-H522
  GI50: 2.65 µM (inactive)
IGROV-1
  GI50: 2.99 µM (inactive)
NCI-H226
  GI50: 17.1 µM (inactive)
ACHN
  GI50: 1.8 µM (inactive)
RXF 393
  GI50: 7.82 µM (inactive)
SF-539
  GI50: 4.1 µM (inactive)
DU-145
  GI50: 8.07 µM (inactive)
HOP-92
  GI50: 16.7 µM (inactive)
786-0
  GI50: 2.07 µM (inactive)
PC-3
  GI50: 11.4 µM (inactive)
SF-295
  GI50: 11.3 µM (inactive)

## C/C(=N\NC(=S)NCCCNC(=S)N/N=C(\C)c1ccccn1)c1ccccn1
HCC 2998
  GI50: 5.71 µM (inactive)
KM12
  GI50: 2.94 µM (inactive)
SK-MEL-28
  GI50: 4.99 µM (inactive)
EKVX
  GI50: 3.79 µM (inactive)
SNB-75
  GI50: 2.95 µM (inactive)
M14
  GI50: 0.733 µM (active)
NCI/ADR-RES
  GI50: 2.22 µM (inactive)
SF-268
  GI50: 2.62 µM (inactive)
OVCAR-3
  GI50: 2.95 µM (inactive)
LOX IMVI
  GI50: 2.81 µM (inactive)
OVCAR-8
  GI50: 1.71 µM (inactive)
T47D
  GI50: 3.51 µM (inactive)
A549
  GI50: 3.48 µM (inactive)
NCI-H23
  GI50: 7.33 µM (inactive)
SW-620
  GI50: 22.5 µM (inactive)
RPMI-8226
  GI50: 4.2 µM (inactive)
MDA-MB-231
  GI50: 6.21 µM (inactive)
A498
  GI50: 4.97 µM (inactive)
SR
  GI50: 0.968 µM (active)
MOLT-4
  GI50: 2.51 µM (inactive)
HCT-116
  GI50: 2.88 µM (inactive)
HT-29
  GI50: 2 µM (inactive)
HL-60
  GI50: 1.35 µM (inactive)
HCT-15
  GI50: 1.3 µM
UACC-62
  GI50: 2.66 µM (inactive)
TK-10
  GI50: 0.619 µM (active)
Hs-578T
  GI50: > 47.6 µM (inactive)
BT-549
  GI50: 3.13 µM (inactive)
CCRF-CEM
  GI50: 1.16 µM (inactive)
Malme-3M
  GI50: 2.42 µM (inactive)
SNB-19
  GI50: > 34.8 µM (inactive)
UACC-257
  GI50: 2.75 µM (inactive)
SK-OV-3
  GI50: 2.01 µM (inactive)
MCF7
  GI50: 3.34 µM (inactive)
SK-MEL-5
  GI50: 2.02 µM (inactive)
UO-31
  GI50: 1.83 µM (inactive)
K562
  GI50: 4.06 µM (inactive)
SK-MEL-2
  GI50: 2.06 µM (inactive)
COLO 205
  GI50: 1.8 µM (inactive)
OVCAR-4
  GI50: 5.28 µM (inactive)
NCI-H460
  GI50: 1.29 µM (inactive)
OVCAR-5
  GI50: 7.94 µM (inactive)
HOP-62
  GI50: 1.94 µM (inactive)
MDA-MB-435
  GI50: 3.23 µM (inactive)
U-251
  GI50: 2.77 µM (inactive)
SN12C
  GI50: 1.98 µM (inactive)
MDA-N
  GI50: 9.27 µM (inactive)
NCI-H522
  GI50: 1.37 µM (inactive)
IGROV-1
  GI50: 3.9 µM (inactive)
NCI-H226
  GI50: 6.92 µM (inactive)
ACHN
  GI50: 1.4 µM (inactive)
RXF 393
  GI50: 3.03 µM (inactive)
SF-539
  GI50: 2.42 µM (inactive)
DU-145
  GI50: 2.26 µM (inactive)
HOP-92
  GI50: 6.73 µM (inactive)
786-0
  GI50: 0.617 µM (active)
PC-3
  GI50: 9.1 µM (inactive)
SF-295
  GI50: 5.27 µM (inactive)
